Assay results taken from patent US10294207B2, “Pyrazole derivatives as TNIK, IKKϵ and TBK1 inhibitor and pharmaceutical composition comprising same” (GREEN CROSS CORPORATION, priority 2015, dated 2019).

Tests used:
TBK1 = molecular target: T1, TBK1 (Homo sapiens, UniProt Q9UHD2); assay: TBK1 inhibition, ADP-Glo Kinase Assay; format: biochemical; conditions: luminometer
T1 construct: purchased Promega V3991
T1 sequence (Q9UHD2 1-729): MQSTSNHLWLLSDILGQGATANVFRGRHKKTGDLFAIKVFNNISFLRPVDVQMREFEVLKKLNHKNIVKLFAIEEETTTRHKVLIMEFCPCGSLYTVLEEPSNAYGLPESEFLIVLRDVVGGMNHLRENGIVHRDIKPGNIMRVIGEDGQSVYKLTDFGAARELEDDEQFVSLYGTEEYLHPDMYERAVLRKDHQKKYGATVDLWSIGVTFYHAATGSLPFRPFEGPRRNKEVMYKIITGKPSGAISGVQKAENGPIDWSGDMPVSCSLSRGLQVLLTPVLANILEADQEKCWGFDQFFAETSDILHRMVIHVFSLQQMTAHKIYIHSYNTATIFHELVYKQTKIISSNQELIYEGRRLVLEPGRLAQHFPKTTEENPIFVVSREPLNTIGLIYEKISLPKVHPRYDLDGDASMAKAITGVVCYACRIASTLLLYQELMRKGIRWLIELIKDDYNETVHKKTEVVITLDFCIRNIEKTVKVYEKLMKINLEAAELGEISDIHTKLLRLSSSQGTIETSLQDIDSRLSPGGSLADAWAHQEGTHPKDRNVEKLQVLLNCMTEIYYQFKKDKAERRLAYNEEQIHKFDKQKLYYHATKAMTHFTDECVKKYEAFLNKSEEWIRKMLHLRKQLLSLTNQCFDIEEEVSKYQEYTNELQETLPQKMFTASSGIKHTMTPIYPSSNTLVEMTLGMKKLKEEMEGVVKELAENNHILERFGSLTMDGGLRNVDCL
Outline: (§1)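 Each recombinant kinase enzyme system was run per the manufacturer's protocol in 40 mM Tris pH 7.5, 20 mM MgCl2 and 0.1 mg/mL BSA. Kinase activity was detected as ADP formation by ADP-Glo luminescence.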

IKKε = molecular target: T2, IKKε (Homo sapiens, UniProt Q14164); assay: IKKε inhibition, ADP-Glo Kinase Assay; format: biochemical; conditions: luminometer
T2 construct: purchased Invitrogen PR8031B
T2 sequence (Q14164 1-716): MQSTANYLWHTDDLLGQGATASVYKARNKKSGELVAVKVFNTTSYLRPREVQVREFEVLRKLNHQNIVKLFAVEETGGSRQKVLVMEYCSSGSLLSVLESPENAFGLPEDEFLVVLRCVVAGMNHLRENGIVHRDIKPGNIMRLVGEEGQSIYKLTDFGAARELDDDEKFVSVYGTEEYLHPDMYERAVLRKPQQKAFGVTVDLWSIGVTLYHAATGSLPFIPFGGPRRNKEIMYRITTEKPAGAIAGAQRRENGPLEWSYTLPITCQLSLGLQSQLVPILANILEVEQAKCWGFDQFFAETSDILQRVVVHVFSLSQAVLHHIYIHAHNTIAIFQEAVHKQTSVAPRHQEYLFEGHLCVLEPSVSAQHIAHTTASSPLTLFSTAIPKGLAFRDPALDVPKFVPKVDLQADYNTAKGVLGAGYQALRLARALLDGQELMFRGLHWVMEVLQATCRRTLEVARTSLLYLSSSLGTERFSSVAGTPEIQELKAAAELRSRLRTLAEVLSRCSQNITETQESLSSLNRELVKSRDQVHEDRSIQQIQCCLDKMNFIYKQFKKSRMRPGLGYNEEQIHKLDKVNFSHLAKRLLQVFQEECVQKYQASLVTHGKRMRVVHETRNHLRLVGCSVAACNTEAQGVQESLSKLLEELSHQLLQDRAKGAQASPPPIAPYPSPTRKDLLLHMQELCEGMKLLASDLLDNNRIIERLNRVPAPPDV
Outline: as §1

Row | SMILES | IC50 (TBK1) [µM] | IC50 (IKKε) [µM]
1 | CN1CCN(c2ccc(C(=O)Nc3n[nH]c4ccc(C(=O)NC(c5ccccn5)C5CC5)cc34)cc2)CC1 (stereo not shown) [Example 140, N-(Cyclopropyl(pyridin-2-yl)methyl)-3-(4-(4-methylpiperazin-1-yl)benzamido)-1H-indazole-5-carboxamide] | 0.084 | 0.27
2 | CN1CCN(c2ccc(C(=O)Nc3n[nH]c4ccc(NC(=O)Cc5cccs5)cc34)cc2)CC1 [Example 141, 4-(4-Methylpiperazin-1-yl)-N-(5-(2-(thiophen-2-yl)acetamido)-1H-indazol-3-yl)benzamide] | 0.024 | 0.38
3 | O=C(Nc1n[nH]c2ccc(C(=O)NC(c3cccnc3)C3CC3)cc12)c1ccc(N2CCOCC2)cc1 (stereo not shown) [Example 142, N-(Cyclopropyl(pyridin-3-yl)methyl)-3-(4-morpholinobenzamido)-1H-indazole-5-carboxamide] | 0.067 | 0.096
4 | CN1CCN(c2ccc(C(=O)Nc3n[nH]c4ccc(C(=O)NC(c5cccnc5)C5CC5)cc34)cc2)CC1 (stereo not shown) [Example 143, N-(Cyclopropyl(pyridin-3-yl)methyl)-3-(4-(4-methylpiperazin-1-yl)benzamido)-1H-indazole-5-carboxamide] | 0.071 | 0.12
5 | O=C(Cc1cccs1)Nc1ccc2[nH]nc(NC(=O)c3ccc(N4CCOCC4)cc3)c2c1 [Example 144, 4-Morpholino-N-(5-(2-(thiophen-2-yl)acetamido)-1H-indazol-3-yl)benzamide] | 0.069 | 0.25
6 | CN1CCN(c2ccc(C(=O)Nc3n[nH]c4ccc(C(=O)NC(C)(C)c5ccsc5)cc34)cc2)CC1 [Example 145, 3-(4-(4-methylpiperazin-1-yl)benzamido)-N-(2-(thiophen-3-yl)propan-2-yl)-1H-indazole-5-carboxamide] | 0.012 | 0.033
7 | CN1CCN(c2ccc(C(=O)Nc3n[nH]c4ccc(C(=O)NCc5ccc(Cl)s5)cc34)cc2)CC1 [Example 146, N-((5-chlorothiophen-2-yl)methyl)-3-(4-(4-methylpiperazin-1-yl)benzamido)-1H-indazole-5-carboxamide] | 0.019 | 0.065
8 | CN1CCN(c2ccc(C(=O)Nc3n[nH]c4ccc(C(=O)NC5(c6cccs6)CCCCC5)cc34)cc2)CC1 [Example 147, 3-(4-(4-Methylpiperazin-1-yl)benzamido)-N-(1-(thiophen-2-yl)cyclohexyl)-1H-indazole-5-carboxamide] | 0.11 | 0.34
9 | O=C(NCc1cccs1)c1ccc2[nH]nc(NC(=O)c3ccc(N4CCOCC4)cc3)c2c1 [Example 148, 3-(4-Morpholinobenzamido)-N-(thiophen-2-ylmethyl)-1H-indazole-5-carboxamide] | 0.004 | 0.031
10 | CN1CCN(c2ccc(C(=O)Nc3n[nH]c4ccc(C(=O)NCc5cccs5)cc34)cc2)CC1 [Example 149, 3-(4-(4-methylpiperazin-1-yl)benzamido)-N-(thiophen-2-ylmethyl)-1H-indazole-5-carboxamide] | 0.0075 | 0.032
11 | COCCNc1ccc(C(=O)Nc2n[nH]c3ccc(C(=O)NCc4cccs4)cc23)cc1 [Example 150, 3-(4-((2-methoxyethyl)amino)benzamido)-N-(thiophen-2-ylmethyl)-1H-indazole-5-carboxamide] | 0.0072 | 0.049
12 | COCCCNc1ccc(C(=O)Nc2n[nH]c3ccc(C(=O)NCc4cccs4)cc23)cc1 [Example 151, 3-(4-((3-Methoxypropyl)amino)benzamido)-N-(thiophen-2-ylmethyl)-1H-indazole-5-carboxamide] | 0.0079 | 0.052
13 | O=C(NCc1cccs1)c1ccc2[nH]nc(NC(=O)c3ccc(NCCN4CCCC4)cc3)c2c1 [Example 152, 3-(4-((2-(Pyrrolidin-1-yl)ethyl)amino)benzamido)-N-(thiophen-2-ylmethyl)-1H-indazole-5-carboxamide] | 0.004 | 0.092
14 | O=C(NCc1cccs1)c1ccc2[nH]nc(NC(=O)c3ccc(NCCN4CCOCC4)cc3)c2c1 [Example 153, 3-(4-((2-morpholinoethyl)amino)benzamido)-N-(thiophen-2-ylmethyl)-1H-indazole-5-carboxamide] | 0.0037 | 0.037

Continued, values first:

Row | IC50 (TBK1) [µM] | IC50 (IKKε) [µM] | SMILES
15 | 0.0086 | 0.13 | CN(C)CCCNc1ccc(C(=O)Nc2n[nH]c3ccc(C(=O)NCc4cccs4)cc23)cc1 [Example 154, 3-(4-((3-(Dimethylamino)propyl)amino)benzamido)-N-(thiophen-2-ylmethyl)-1H-indazole-5-carboxamide]
16 | 0.0064 | 0.094 | CNCCN(C)c1ccc(C(=O)Nc2n[nH]c3ccc(C(=O)NCc4cccs4)cc23)cc1 [Example 155, 3-(4-(Methyl(2-(methylamino)ethyl)amino)benzamido)-N-(thiophen-2-ylmethyl)-1H-indazole-5-carboxamide]
17 | 0.077 | 0.29 | O=C(NCc1cccs1)c1ccc2[nH]nc(NC(=O)c3cccc(N4CCOCC4)c3)c2c1 [Example 156, 3-(3-Morpholinobenzamido)-N-(thiophen-2-ylmethyl)-1H-indazole-5-carboxamide]
18 | 0.008 | 0.05 | O=C(NCc1cccs1)c1ccc2[nH]nc(NC(=O)c3ccc(NCC4CCCO4)cc3)c2c1 (stereo not shown) [Example 157, 3-(4-(((Tetrahydrofuran-2-yl)methyl)amino)benzamido)-N-(thiophen-2-ylmethyl)-1H-indazole-5-carboxamide]
19 | 0.0087 | 0.096 | CN(C)CCNc1ccc(C(=O)Nc2n[nH]c3ccc(C(=O)NCc4cccs4)cc23)cc1 [Example 158, 3-(4-((2-(Dimethylamino)ethyl)amino)benzamido)-N-(thiophen-2-ylmethyl)-1H-indazole-5-carboxamide]
20 | 0.033 | 0.31 | CC(C)CCNc1ccc(C(=O)Nc2n[nH]c3ccc(C(=O)NCc4cccs4)cc23)cc1 [Example 159, 3-(4-(Isopentylamino)benzamido)-N-(thiophen-2-ylmethyl)-1H-indazole-5-carboxamide]
21 | 1.1 | 3.9 | O=C(NCc1cccs1)c1ccc2[nH]nc(NC(=O)c3ccc(NCCC4=CCCCC4)cc3)c2c1 [Example 167, 3-(4-((2-(Cyclohex-1-en-1-yl)ethyl)amino)benzamido)-N-(thiophen-2-ylmethyl)-1H-indazole-5-carboxamide]
22 | 0.0003 | 0.0038 | O=C(NCc1cccs1)c1ccc2[nH]nc(NC(=O)c3ccc(N4CCNCC4)cc3)c2c1 [Example 171, 3-(4-(Piperazin-1-yl)benzamido)-N-(thiophen-2-ylmethyl)-1H-indazole-5-carboxamide]
23 | 0.035 | 0.31 | CN1CCN(c2ccc(C(=O)Nc3n[nH]c4ccc(C(=O)NCc5cnco5)cc34)cc2)CC1 [Example 172, 3-(4-(4-Methylpiperazin-1-yl)benzamido)-N-(oxazol-5-ylmethyl)-1H-indazole-5-carboxamide]
24 | 0.033 | 0.26 | CN1CCN(c2ccc(C(=O)Nc3n[nH]c4ccc(C(=O)NCc5ccon5)cc34)cc2)CC1 [Example 173, N-(Isoxazol-3-ylmethyl)-3-(4-(4-methylpiperazin-1-yl)benzamido)-1H-indazole-5-carboxamide]
25 | 0.045 | 0.54 | CN1CCN(c2ccc(C(=O)Nc3n[nH]c4ccc(C(=O)NCc5cscn5)cc34)cc2)CC1 [Example 174, 3-(4-(4-Methylpiperazin-1-yl)benzamido)-N-(thiazol-4-ylmethyl)-1H-indazole-5-carboxamide]
26 | 0.0024 | 0.0076 | C[C@@H](NC(=O)c1ccc2[nH]nc(NC(=O)c3ccc(N4CCN(C)CC4)cc3)c2c1)c1ccccc1 [Example 175, (R)-3-(4-(4-Methylpiperazin-1-yl)benzamido)-N-(1-phenylethyl)-1H-indazole-5-carboxamide]
